In US20240373851A1, “PEST CONTROL COMPOSITION AND PEST CONTROL METHOD” (SUMITOMO CHEMICAL COMPANY, LIMITED, priority 2021, published 2024):

What was measured:
Format in all cases: in vivo
[1] = system: German cockroaches (Blattella germanica); assay: Test Example 4: control test against German cockroaches, spray in chamber; details: adult German cockroaches; 1.5 mL sprayed; concentration [%]: nicofluprole 0.01, imiprothrin 0.01, deltamethrin 0.0002, alone or mixed; 45 minutes after spraying
Procedure: (§1) Next, the usefulness of the inventive composition for controlling pests will be indicated by Test Examples. In general, the control effect to be expected when treated with a mixture obtained by mixing given two or three types of active ingredient compounds is determined by the Colby's calculation equation represented by the following [Equation 1] and [Equation 2].
(§2) [formula] • P: moribund and mortal rates (%) when treated with an active ingredient compound X in the concentration of m [ppm] • Q: moribund and mortal rates (%) when treated with an active ingredient compound Y in the concentration of n [ppm] • EA: moribund and mortal rates (%) when treated with an active ingredient compound X in the concentration of m [ppm] and an active ingredient compound Y in the concentration of n [ppm] (hereinafter referred to as expected value A) […]
(§3) Regarding the synergistic effect of three types of the active ingredient compounds, in case where the moribund and mortal rates (%) when actually treated with a mixture obtained by mixing three types of the active ingredient compounds exceed the expected value A calculated by using the moribund and mortal rates (%) when actually treated with a mixture obtained by mixing two types of the active ingredient compounds among three types thereof, and the moribund and mortal rates (%) calculated when actually treated the remaining one type of the active ingredient compound, or the expected value B (%) calculated from the moribund and mortal rates (%) when actually treated with each of three types of the active ingredient compounds alone, it was determined that the synergistic effect exists. […]

[2] = system: German cockroaches (Blattella germanica); assay: Test Example 6: control test against German cockroaches, spray in chamber; details: adult German cockroaches; 1.5 mL sprayed; concentration [%]: isocycloseram 0.05, imiprothrin 0.01, lambda-cyhalothrin 0.0025, alone or mixed; 60 minutes after spraying
Procedure: as §1, §2, §3

[3] = system: German cockroaches (Blattella germanica); assay: Test Example 11: control test against German cockroaches, spray in chamber; details: adult German cockroaches; 1.5 mL sprayed; concentration [%]: isocycloseram 0.01, imiprothrin 0.01, permethrin 0.05, alone or mixed; 120 minutes after spraying
Procedure: as §1, §2, §3

## C#CCN1CC(=O)N(COC(=O)[C@@H]2C(C=C(C)C)C2(C)C)C1=O (mixture of isomers) [Imiprothrin, imiprothrin]
[1]
  Moribund and mortal rates [%] after 45 minutes: 65%
[2]
  Moribund and mortal rates [%] after 60 minutes: 25%
[3]
  Moribund and mortal rates [%] after 120 minutes: 15%
